Source: PMC11581214, “Compound 4f, a novel brain-penetrant reversible monoacylglycerol inhibitor, ameliorates neuroinflammation, neuronal cell loss, and cognitive impairment in mice with kainic acid-induced neurodegeneration” (PLOS ONE, 2024)

Key:
monoamine oxidase-B = target: T1, monoamine oxidase-B (Homo sapiens, UniProt P27338); assay: off-target panel enzyme assay (Eurofins), single concentration […]; format: biochemical
T1 construct: gene MAOB
T1 sequence (P27338 2-520): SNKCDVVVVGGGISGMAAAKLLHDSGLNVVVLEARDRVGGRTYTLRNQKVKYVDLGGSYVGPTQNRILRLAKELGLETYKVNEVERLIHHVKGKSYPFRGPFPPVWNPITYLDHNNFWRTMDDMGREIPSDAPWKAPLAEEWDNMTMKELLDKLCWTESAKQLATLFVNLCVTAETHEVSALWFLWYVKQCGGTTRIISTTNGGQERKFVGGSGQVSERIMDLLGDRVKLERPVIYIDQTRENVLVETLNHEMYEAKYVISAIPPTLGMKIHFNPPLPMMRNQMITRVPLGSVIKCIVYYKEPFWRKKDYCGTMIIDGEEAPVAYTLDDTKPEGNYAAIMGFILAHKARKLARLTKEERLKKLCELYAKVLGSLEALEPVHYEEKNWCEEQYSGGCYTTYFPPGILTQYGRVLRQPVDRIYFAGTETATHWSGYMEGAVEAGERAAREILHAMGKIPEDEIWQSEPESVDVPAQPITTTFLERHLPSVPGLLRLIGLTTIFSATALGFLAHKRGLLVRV

[1] = target: T2, monoacylglycerol lipase (MAGL) (Mus musculus, UniProt O35678); assay: in vivo brain target occupancy by displacement of MAGL tracer T-211 (LC-MS/MS); brain 2-AG increase and AA decrease; format: cell-based
T2 construct: gene Mgll
T2 sequence (O35678 1-303): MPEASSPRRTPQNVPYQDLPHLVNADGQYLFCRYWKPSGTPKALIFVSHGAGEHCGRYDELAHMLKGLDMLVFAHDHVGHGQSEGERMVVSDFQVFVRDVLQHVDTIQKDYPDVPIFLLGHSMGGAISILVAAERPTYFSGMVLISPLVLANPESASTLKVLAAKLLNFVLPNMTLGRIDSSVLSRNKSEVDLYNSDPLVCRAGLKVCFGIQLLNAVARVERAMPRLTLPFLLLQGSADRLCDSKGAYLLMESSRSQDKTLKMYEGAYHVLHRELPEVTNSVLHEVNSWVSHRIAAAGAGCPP

[2] = target: T3, serotonin (5-hydroxytryptamine) 2B (Homo sapiens, UniProt P41595); assay: off-target panel of radioligand binding and functional assays (Eurofins), single concentration […]
T3 construct: gene HTR2B
T3 sequence (P41595 whole entry): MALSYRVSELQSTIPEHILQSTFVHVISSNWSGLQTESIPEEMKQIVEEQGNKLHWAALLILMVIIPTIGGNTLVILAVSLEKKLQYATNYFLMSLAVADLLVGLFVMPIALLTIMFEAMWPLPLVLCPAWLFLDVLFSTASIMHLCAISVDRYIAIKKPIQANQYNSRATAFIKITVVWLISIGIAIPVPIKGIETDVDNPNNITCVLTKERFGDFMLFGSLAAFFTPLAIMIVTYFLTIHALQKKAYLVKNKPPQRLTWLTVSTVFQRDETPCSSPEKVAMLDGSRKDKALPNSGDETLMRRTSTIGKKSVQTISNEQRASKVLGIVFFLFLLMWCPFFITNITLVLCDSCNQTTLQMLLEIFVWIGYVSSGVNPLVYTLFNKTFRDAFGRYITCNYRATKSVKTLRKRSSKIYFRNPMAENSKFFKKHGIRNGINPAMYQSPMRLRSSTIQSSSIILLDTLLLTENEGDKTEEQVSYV

inhibition at 10 µM (monoamine oxidase-B): < 50% | receptor occupancy at 1 mg/kg [1]: > 99% | inhibition at 10 µM [2]: 81%
SMILES: Cc1ccc(COC2CN(C(=O)[C@H]3C[C@]4(COC(=O)N4)C3)C2)cc1Cl [4f]
